Species on record: Rattus norvegicus
Experiment: Open TG-GATES - Regimen: Daily Repeat
Type: toxicity, organism-based, Sprague-Dawley
Design: regimen Daily Repeat, gender Male, age 6 weeks
Settings: in vivo, po, 0 mg/kg, route gavage, dose level Control; for APTT / Bas / Eos / Fbg / Hb / Ht / Lym / MCH / MCHC / MCV / Mono / Neu / Plat / RBC / Ret / WBC: tissue Blood; for KIDNEY_L / KIDNEY_R / KIDNEY_TOTAL: tissue Kidney; for ALP / ALT / AST / BUN / CRE / DBIL / GLC / IP / K / LDH / Na / PL / RALB / TBIL / TC / TG / TP / gamma-GTP: tissue Plasma

Q: Which results are given for `CN(C)CCC=C1c2ccccc2COc2ccccc21` [DOXEPIN]?
A: TERMINAL_BW (72 h, time 3 day): 226.4 g; APTT (72 h, time 3 day): 17.1 s; Bas (72 h, time 3 day): 0%; Eos (72 h, time 3 day): 1%; Fbg (72 h, time 3 day): 281.6 mg/dL; Hb (72 h, time 3 day): 13.4 g/dL; Ht (72 h, time 3 day): 38.6%; Lym (72 h, time 3 day): 78.6%; MCH (72 h, time 3 day): 21.4 pg; MCHC (72 h, time 3 day): 34.7%; MCV (72 h, time 3 day): 61.7 fL; Mono (72 h, time 3 day): 2.8%; Neu (72 h, time 3 day): 17%; Plat (72 h, time 3 day): 122.6 x10_4/uL; RBC (72 h, time 3 day): 625.6 x10_4/ul; Ret (72 h, time 3 day): 7.8%; WBC (72 h, time 3 day): 81.7 x10_2/uL; KIDNEY_L (72 h, time 3 day): 1 g; KIDNEY_R (72 h, time 3 day): 1 g; KIDNEY_TOTAL (72 h, time 3 day): 2 g; ALP (72 h, time 3 day): 1760.6 IU/L; ALT (72 h, time 3 day): 46 IU/L; AST (72 h, time 3 day): 71.2 IU/L; BUN (72 h, time 3 day): 15.6 mg/dL; CRE (72 h, time 3 day): 0.2 mg/dL; DBIL (72 h, time 3 day): 0.018 mg/dL; GLC (72 h, time 3 day): 192 mg/dL; IP (72 h, time 3 day): 8 mg/dL; K (72 h, time 3 day): 4.3 meq/L; LDH (72 h, time 3 day): 71.8 IU/L; Na (72 h, time 3 day): 140.8 meq/L; PL (72 h, time 3 day): 143 mg/dL; RALB (72 h, time 3 day): 2.7 g/dL; TBIL (72 h, time 3 day): 0.036 mg/dL; TC (72 h, time 3 day): 79.6 mg/dL; TG (72 h, time 3 day): 91.2 mg/dL; TP (72 h, time 3 day): 5.7 g/dL; gamma-GTP (72 h, time 3 day): 1.4 IU/L; TERMINAL_BW ([…], time 7 day): 255.5 g; TERMINAL_BW ([…], time 14 day): 310.4 g; TERMINAL_BW ([…], time 28 day): 419.8 g; APTT ([…], time 7 day): 15.9 s; Bas ([…], time 7 day): 0.2%; Eos ([…], time 7 day): 1%; Fbg ([…], time 7 day): 293.2 mg/dL; Hb ([…], time 7 day): 13.5 g/dL; Ht ([…], time 7 day): 38.5%; Lym ([…], time 7 day): 75.4%; MCH ([…], time 7 day): 21.1 pg; MCHC ([…], time 7 day): 35.1%; MCV ([…], time 7 day): 60 fL; Mono ([…], time 7 day): 3.6%; Neu ([…], time 7 day): 19%; Plat ([…], time 7 day): 116.5 x10_4/uL; RBC ([…], time 7 day): 641.8 x10_4/ul; Ret ([…], time 7 day): 5.2%; WBC ([…], time 7 day): 81 x10_2/uL; APTT ([…], time 14 day): 16.8 s; Bas ([…], time 14 day): 0%; Eos ([…], time 14 day): 0.8%; Fbg ([…], time 14 day): 280.2 mg/dL; Hb ([…], time 14 day): 14 g/dL; Ht ([…], time 14 day): 40.1%; Lym ([…], time 14 day): 77.2%; MCH ([…], time 14 day): 21.3 pg; MCHC ([…], time 14 day): 34.8%; MCV ([…], time 14 day): 61.1 fL; Mono ([…], time 14 day): 2.8%; Neu ([…], time 14 day): 18.4%; Plat ([…], time 14 day): 116.1 x10_4/uL; RBC ([…], time 14 day): 657.4 x10_4/ul; Ret ([…], time 14 day): 4.8%; WBC ([…], time 14 day): 103.9 x10_2/uL; APTT ([…], time 28 day): 16.6 s; Bas ([…], time 28 day): 0%; Eos ([…], time 28 day): 1.2%; Fbg ([…], time 28 day): 278.6 mg/dL; Hb ([…], time 28 day): 14.7 g/dL; Ht ([…], time 28 day): 41.9%; Lym ([…], time 28 day): 74.6%; MCH ([…], time 28 day): 20.2 pg; MCHC ([…], time 28 day): 35.3%; MCV ([…], time 28 day): 57.3 fL; Mono ([…], time 28 day): 3%; Neu ([…], time 28 day): 20.8%; Plat ([…], time 28 day): 102.4 x10_4/uL; RBC ([…], time 28 day): 731.6 x10_4/ul; Ret ([…], time 28 day): 3%; WBC ([…], time 28 day): 78.6 x10_2/uL; KIDNEY_L ([…], time 7 day): 1.1 g; KIDNEY_R ([…], time 7 day): 1.1 g; KIDNEY_TOTAL ([…], time 7 day): 2.2 g; KIDNEY_L ([…], time 14 day): 1.2 g; KIDNEY_R ([…], time 14 day): 1.2 g; KIDNEY_TOTAL ([…], time 14 day): 2.4 g; KIDNEY_L ([…], time 28 day): 1.4 g; KIDNEY_R ([…], time 28 day): 1.4 g; KIDNEY_TOTAL ([…], time 28 day): 2.7 g; ALP ([…], time 7 day): 1795.6 IU/L; ALT ([…], time 7 day): 46 IU/L; AST ([…], time 7 day): 74.4 IU/L; BUN ([…], time 7 day): 18.8 mg/dL; CRE ([…], time 7 day): 0.2 mg/dL; DBIL ([…], time 7 day): 0.018 mg/dL; GLC ([…], time 7 day): 186.4 mg/dL; IP ([…], time 7 day): 7 mg/dL; K ([…], time 7 day): 4.2 meq/L; LDH ([…], time 7 day): 67.2 IU/L; Na ([…], time 7 day): 141.4 meq/L; PL ([…], time 7 day): 154 mg/dL; RALB ([…], time 7 day): 2.7 g/dL; TBIL ([…], time 7 day): 0.03 mg/dL; TC ([…], time 7 day): 85 mg/dL; TG ([…], time 7 day): 112.2 mg/dL; TP ([…], time 7 day): 5.8 g/dL; gamma-GTP ([…], time 7 day): 1.6 IU/L; ALP ([…], time 14 day): 1467 IU/L; ALT ([…], time 14 day): 42.8 IU/L; AST ([…], time 14 day): 67.4 IU/L; BUN ([…], time 14 day): 18 mg/dL; CRE ([…], time 14 day): 0.2 mg/dL; DBIL ([…], time 14 day): 0.014 mg/dL; GLC ([…], time 14 day): 191.6 mg/dL; IP ([…], time 14 day): 7 mg/dL; K ([…], time 14 day): 4.1 meq/L; LDH ([…], time 14 day): 65.6 IU/L; Na ([…], time 14 day): 143.4 meq/L; PL ([…], time 14 day): 157 mg/dL; RALB ([…], time 14 day): 2.7 g/dL; TBIL ([…], time 14 day): 0.024 mg/dL; TC ([…], time 14 day): 77.4 mg/dL; TG ([…], time 14 day): 172.8 mg/dL; TP ([…], time 14 day): 6 g/dL; gamma-GTP ([…], time 14 day): 1 IU/L; ALP ([…], time 28 day): 1293.8 IU/L; ALT ([…], time 28 day): 43.6 IU/L; AST ([…], time 28 day): 65.4 IU/L; BUN ([…], time 28 day): 17.2 mg/dL; CRE ([…], time 28 day): 0.2 mg/dL; DBIL ([…], time 28 day): 0.024 mg/dL; GLC ([…], time 28 day): 180.8 mg/dL; IP ([…], time 28 day): 6.3 mg/dL; K ([…], time 28 day): 3.9 meq/L; LDH ([…], time 28 day): 59.6 IU/L; Na ([…], time 28 day): 143.4 meq/L; PL ([…], time 28 day): 166 mg/dL; RALB ([…], time 28 day): 2.9 g/dL; TBIL ([…], time 28 day): 0.034 mg/dL; TC ([…], time 28 day): 80.2 mg/dL; TG ([…], time 28 day): 212.2 mg/dL; TP ([…], time 28 day): 6.4 g/dL
